# Source: US20090298857A1, “Treatment of Neurodegenerative Diseases Through Inhibition of HSP90” (SLOAN-KETTERING INSTITUTE FOR CANCER RESEARCH, priority 2006, published 2009)
# Values joined by “and” are separate entries in the source; they are usually repeats but may differ in a detail not shown here. Equal entries are not always repeated.
# Key:
# [1] = system: p35 and Tau phosphorylation in cortical region; experiment: One dose PU-DZ8 in hTau mice; type: in vivo; settings: 75 mg/kg i.p.
# Description: The majority of Tau pathology in hTau mice is located in the cortical brain region. These mice express six isoforms of non-mutant human Tau, but develop AD-like Tau-pathology. Heat-stable fractions (S1) prepared from cortical homogenates of these mice indicate an age-related accumulation of Tau phosphorylated at putative cdk5 sites. […] Aggregate-free Tau (S1) fractions were prepared from the cortical region of these mice and human Tau levels assessed by immunobloting with an antibody specific for 3-repeat domain Tau (RD3). By analogy to experiments on primary neuronal cultures and WT Tau transfected cells, the Hsp90 inhibitor had no effect on soluble WT Tau expression. […] The monoclonal antibody CP13 is commonly used to detect Tau pathology in both early and more advanced stages of Tau aggregate accumulation (41).
# [2] = system: mTau expression and phosphorylation, subcortical brain region; experiment: 30 day Hsp90 inhibitor treatment of JNPL3 mice; type: in vivo; settings: 30 days
# Description: To investigate whether modulation of mTau could be sustained over a longer Hsp90 inhibitor-treatment period, without being toxic to mice. JNPL3 mice were subjected for 30 days to these agents. Female JNPL3 mice 6.5 months of age (n=10) were administered i.p. vehicle (n=5) or one of the Hsp90 inhibitors, PU24FC1 (200 mg/kg) or PU-DZ8 (75 mg/kg) (n = 5), on a daily, five-times per week schedule and animals were sacrificed at 8 h following the last administered dose of inhibitor. […] Furthermore, no visible internal organ damage was detected at sacrifice upon gross inspection. Both S1 and P3 fractions extracted from the subcortical brain region of these mice were analyzed for mTau expression and phosphorylation.
# [3] = system: human TauP301L in JNPL3 mouse brain; experiment: One dose PU-DZ8 in JNPL3 mice, soluble (S1) and insoluble (P3) Tau; type: in vivo; settings: 75 mg/kg i.p.
# Description: To investigate whether the human TauP301L present in the JNPL3 line of mice is a sensitive target for Hsp90 inhibition, animals were treated with the brain-barrier permeable Hsp90 inhibitor PU-DZ8. This agent is a higher-potency water soluble derivative of PU24FC1 (EC50JNPL3 brain Hsp90=70 nM). One dose of PU-DZ8 (75 mg/kg) was administered intraperitoneally (i.p.) to female mice of 2.5-4 months in age (n=32) and animals were sacrificed in the interval of 0 to 36 h. Both aggregate-free Tau (S1) and insoluble Tau (P3) fractions were prepared from the subcortical and cortical regions of these mice. Human Tau levels were assessed by immunobloting with a human specific anti-Tau antibody (HT-7). […] We next examined in a 4- to 6-month old mouse group (n=15) whether the stability of mTau as present in tau aggregates (P3 fraction) was additionally regulated by Hsp90.
# For experiments designed to test the kinetics of mTau and p35 modulation by Hsp90 inhibitors, animals were administered intraperitoneally (i.p.) 75 mg/kg PU-DZ8 in PBS (6% DMSO). Mice were sacrificed by CO2 euthanasia at the indicated times following PU-DZ8 administration. Hemibrains were separated into cortico-limbic (cortex, amygdale and hippocampus) and subcortical (basal ganglia, diencephalon, brain stem and cerebellum) regions, quickly frozen on dry ice and stored at −80° C. and processed. In summary, each brain piece was weighed and homogenized in three volumes of Tris-buffered saline (TBS) containing protease and phosphatase inhibitors (25 mM Tris-HCl, pH 7.4, 150 mM NaCl, 1 mM EDTA, 1 mM EGTA, 5 mM sodium pyrophosphate, 30 mM p-glycerophosphate, 30 mM sodium fluoride. 1 mM phenylmethylsulfonyl fluoride (PMSF)). The homogenates were centrifuged at 27,000 g for 15 min at 4° C. Supernatants were collected as S1 fractions, and the pellets (P1) were re-homogenized in three volumes of salt/sucrose buffer (0.8 M NaCl, 10% sucrose, 10 mM Tris/HCl, pH 7.4, 1 mM EGTA, 1 mM PMSF) and centrifuged as above. The resulting pellets were discarded and the supernatants were incubated with sarkosyl (Sigma, St Louis, Mo., USA; 1% final concentration) for 1 h at 37° C. The sarkosyl mixtures were then centrifuged at 150,000 g for 30 min at 4° C. The supernatants (S2 fraction) were collected, and the pellets (P3) were resuspended in 50 μL 2% SDS in TBS and stored at −80° C. for western blotting. Proteins were analyzed by Western blot.
# P-glycoprotein = P-glycoprotein (Homo sapiens, UniProt P08183); experiment: P-glycoprotein substrate status; type: in vitro ADME
# P-glycoprotein, sequence (P08183 whole entry): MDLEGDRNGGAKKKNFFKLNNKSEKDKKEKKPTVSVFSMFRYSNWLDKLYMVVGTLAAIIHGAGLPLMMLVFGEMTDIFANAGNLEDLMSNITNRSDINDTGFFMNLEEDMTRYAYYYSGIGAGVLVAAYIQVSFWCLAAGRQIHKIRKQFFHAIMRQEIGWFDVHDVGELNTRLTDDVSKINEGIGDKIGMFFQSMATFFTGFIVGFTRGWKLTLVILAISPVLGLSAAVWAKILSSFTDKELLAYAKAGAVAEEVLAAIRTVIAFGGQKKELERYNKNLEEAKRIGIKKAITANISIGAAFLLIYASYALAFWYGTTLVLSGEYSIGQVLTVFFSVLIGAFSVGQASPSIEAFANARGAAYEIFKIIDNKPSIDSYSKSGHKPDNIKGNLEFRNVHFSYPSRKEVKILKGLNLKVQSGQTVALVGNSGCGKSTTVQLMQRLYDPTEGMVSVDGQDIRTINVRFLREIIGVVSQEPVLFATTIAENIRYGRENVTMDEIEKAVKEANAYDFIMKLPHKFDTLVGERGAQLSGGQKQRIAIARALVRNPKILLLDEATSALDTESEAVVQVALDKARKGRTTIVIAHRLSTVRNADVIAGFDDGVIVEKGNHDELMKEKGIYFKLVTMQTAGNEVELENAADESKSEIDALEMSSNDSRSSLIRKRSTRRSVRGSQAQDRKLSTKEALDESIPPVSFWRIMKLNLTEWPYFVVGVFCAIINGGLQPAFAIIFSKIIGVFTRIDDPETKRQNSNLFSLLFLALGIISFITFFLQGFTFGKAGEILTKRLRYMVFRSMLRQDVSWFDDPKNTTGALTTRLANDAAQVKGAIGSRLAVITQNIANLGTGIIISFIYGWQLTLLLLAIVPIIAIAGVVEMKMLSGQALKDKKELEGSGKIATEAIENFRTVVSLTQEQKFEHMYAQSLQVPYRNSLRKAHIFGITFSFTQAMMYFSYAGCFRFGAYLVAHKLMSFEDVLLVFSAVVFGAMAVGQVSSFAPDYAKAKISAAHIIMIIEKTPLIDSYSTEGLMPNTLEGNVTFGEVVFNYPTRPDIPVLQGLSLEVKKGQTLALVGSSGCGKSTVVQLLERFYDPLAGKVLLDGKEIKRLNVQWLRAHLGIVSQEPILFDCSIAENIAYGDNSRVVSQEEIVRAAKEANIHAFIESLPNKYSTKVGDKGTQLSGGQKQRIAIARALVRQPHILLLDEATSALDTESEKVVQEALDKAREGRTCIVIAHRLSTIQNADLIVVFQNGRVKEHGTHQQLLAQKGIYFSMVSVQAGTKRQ
# Excerpt: Another characteristic which is indicative of the ability to cross the blood brain barrier is protein binding. […] It is not sufficient for a potential neurotherapeutic agent to move across the BBB—it also has to stay in the brain long enough to exert its desired action. This means that it also has to avoid being a substrate for a variety of transport proteins that work to extrude compounds from the brain.
# [4] = Assessment of PU-DZ8 brain levels by HPLC/MS/MS; type: in vivo, mice; settings: 75 mg/kg i.p.
# Description: Assessment of PU-DZ8 brain levels. Concentrations of compound were determined and quantitated by a MRM mode using a tandem high-performance liquid chromatography-mass/mass spectrometry (HPLC/MS/MS). A weighed piece of brain was rinsed with saline isotonic solution, dried with gauze and then homogenized in mobile phase (acetonitrile (ACN)/0.1% formic acid=1.2/2.8, v/v). Haloperidol was added as internal standard. PU-DZ8 was extracted in methylene chloride, the organic layer was separated, speedily dried under vacuum and reconstituted in the mobile phase. Compound analysis was performed in the API 4000™ LC/MS/MS (Applied Biosystems) which was coupled with a Shimadzu LC system and a 96-well plate autosampler. A Gemini C18 column (5 μ particle size, 50×4.6 mm I.D.) was used for the LC separation. The analyte was eluted under an isocratic condition for 4 min at a flow rate of 0.4 mL/min.
# One dose of PU-DZ8 (75 mg/kg) was administered intraperitoneally (i.p.) to female mice of 2.5-4 months in age (n=32) and animals were sacrificed in the interval of 0 to 36 h. Both aggregate-free Tau (S1) and insoluble Tau (P3) fractions were prepared from the subcortical and cortical regions of these mice. PU-DZ8 levels in the brain reached 0.35 μg/g (˜700 nM) at 4 h, and the pharmacologically relevant dose was retained for at least 12 h post-administration (0.2 μg/g, ˜390 nM).
# [5] = ref. (2); cited from earlier work
structure (smiles),measurement,setting,value
CC(C)NCCCn1c(Cc2cc3c(cc2I)OCO3)nc2c(N)nc(F)nc21 [PU-DZ8],p35 levels,"[1]; 8 h post-administration, P=0.0019",significant time-dependent reduction
same,Tau phosphorylation on Ser202 (antibody CP13),"[1]; 8 h post-administration, P=0.0078",alleviation of Tau phosphorylation
same,soluble WT Tau expression,"[1]; hTau mice, cortical S1",no effect
same,p35 in S1 fraction,[2],p35 reduction
same,"toxicity (animal weight, fur appearance, appetite, posture)","[2]; daily five-times per week i.p., PU24FC1 200 mg/kg, PU-DZ8 75 mg/kg",No toxicity was observed
same,Tau expression and phosphorylation in S1 and P3 fractions,"[2]; hTau P<0.0001, T231 P=0.0034 (FIG. 15)",significant reduction
same,cdk5 expression,[3],No significant changes
same,expressions of Akt and Raf-1,[3],not altered
same,insoluble and hyperphosphorylated Tau (P3 fraction),[3]; 4- to 6-month old mice,significant reduction
same,"soluble precursor pool mTau (S1), subcortical brain regions","[3]; 4 h (P=0.0031), maintained up to 36 h",significant decrease
same,P-gp substrate,P-glycoprotein,not a substrate of P-pg
same,level in the brain,[4]; 4 h,0.35 μg/g and ~700 nM
same,level in the brain,[4]; 12 h post-administration,0.2 μg/g and ~390 nM
same,water solubility,[5],water soluble
